Experimental data published in patent publication US6342514B1, “Compositions and methods for treating bone deficit conditions” (ZymoGenetics, Inc., priority 1996, dated 2002).

Tests used:
[1] = tested on: mouse BMP2 promoter; experiment: High throughput screening: BMP-2 promoter luciferase reporter assay in 2T3-BMP-2-LUC cells; type: cell-based; conditions: at about 3 μM
Excerpt: A rapid throughput screening test for compounds capable of stimulating expression of a reporter gene linked to a BMP promoter (a surrogate for the production of bone morphogenetic factors that are endogenously produced) is described in U.S. application Ser. No. 08/458,434, filed Jun. 2, 1995, the contents of which are incorporated herein by reference. This assay is also described as a portion of a study of immortalized murine osteoblasts (derived from a mouse expressing a transgene composed of a BMP2 promoter driving expression of T-antigen) in Ghosh-Choudhery, N. et al. Endocrinology (1996) 137:331-39. […]
Briefly, the assay utilizes cells transformed permanently or transiently with constructs in which the promoter of a bone morphogenetic protein, specifically BMP2 or BMP4, is coupled to a reporter gene, typically luciferase. These transformed cells are then evaluated for the production of the reporter gene product; compounds that activate the BMP promoter will drive production of the reporter protein, which can be readily assayed. […]
The treated cells were incubated for 24 hours at 37° C. and 5% CO2. […] Luminescence was measured on an automated 96-well luminometer, and was expressed as either picograms of luciferase activity per well or as picograms of luciferase activity per microgram of protein. […]

[2] = tested on: calvarial bone of ICR Swiss white mice; experiment: In vivo assay of effects of compounds on murine calvarial bone growth; set-up: species or system mouse; conditions: subcutaneous injection over right calvaria, day 14, compared to vehicle control
Protocol: Male ICR Swiss white mice, aged 4-6 weeks and weighing 13-26 gm, are employed, using 4-5 mice per group. The calvarial bone growth assay is performed as described in PCT application WO 95/24211. Briefly, the test compound or appropriate control vehicle is injected into the subcutaneous tissue over the right calvaria of normal mice. Typically, the control vehicle is the vehicle in which the compound was solubilized, and is PBS containing 5% DMSO or is PBS containing Tween (2 μl/10 ml). The animals are sacrificed on day 14 and bone growth measured by histomorphometry. Bone samples for quantitation are cleaned from adjacent tissues and fixed in 10% buffered formalin for 24-48 hours, decalcified in 14% EDTA for 1-3 weeks, processed through graded alcohols; and embedded in paraffin wax. Three to five μm sections of the calvaria are prepared, and representative sections are selected for histomorphometric assessment of the effects on bone formation and bone resorption. Sections are measured by using a camera lucida attachment to trace directly the microscopic image onto a digitizing plate. Bone changes are measured on sections cut 200 μm apart, over 4 adjacent 1×1 mm fields on both the injected and noninjected sides of the calvaria. New bone is identified by its characteristic woven structure, and osteoclasts and osteoblasts are identified by their distinctive morphology. […]

[3] = tested on: TMC-23 mouse clonal chondrogenic cell line; experiment: Chondrogenic activity: alkaline phosphatase (ALP) activity in TMC-23 cells; type: cell-based; conditions: day 2, 10^−9 M, compared to vehicle control
Protocol: Briefly, a mouse clonal chondrogenic cell line, TMC-23, was isolated and cloned from costal cartilage of transgenic mice containing the BMP-2 gene control region driving SV-40 large T-antigen, generated as described in Ghosh-Choudhury et al Endocrinology 137:331-39, 1996.
For measurement of alkaline phosphatase (ALP) activity, the technique of LF Bonewald et al. J Biol Chem (1992) 267:8943-49, was employed. Briefly, TMC-23 cells were plated in 96 well microtiter plates in DMEM containing 10% FCS at 4×10^3 cells/well. Two days after plating, the cells were confluent and the medium was replaced with fresh medium containing 10% FCS and different concentrations of compounds or recombinant BMP-2. After an additional 2 or 5 days incubation, the plates were washed twice with PBS, and then lysing solution (0.05% Triton X-100) was added (100 μl/well). The cells were lysed by three freeze-thaw cycles of −70° C. (30 min), followed by 37° C. (30 min with shaking). […] The spectrophotometric absorbance at 405 nm was compared to that of p-nitrophenol standards to estimate ALP activity in the samples. The protein content of the cell lysates was determined by the Bio-Rad protein assay kit (Bio-Rad, Hercules, Calif.). Specific activity was calculated using these two parameters.

With `c1ccc(N=NC2=NNc3ccccc3S2)cc1` [Compound 59-0008, 3-phenylazo-1H-4,1,2-benzothiadiazine] the “luciferase response at maximal activity” value [1] was “approximately 175 light emission units”, the “increase in width of new calvarial bone” value [2] was 4 fold and the “increase of ALP levels” value [3] was “approximately 3 fold”.
